Target: T1, human A3 adenosine receptor (Homo sapiens, UniProt P0DMS8)
T1 construct: clone HS-21a contained the complete open reading frame corresponding to the human homolog of the rat A3 adenosine receptor; expressed in transfected cells; host or cells: CHO cells stably transfected with HS-21a cDNA
T1 sequence (P0DMS8 1-318): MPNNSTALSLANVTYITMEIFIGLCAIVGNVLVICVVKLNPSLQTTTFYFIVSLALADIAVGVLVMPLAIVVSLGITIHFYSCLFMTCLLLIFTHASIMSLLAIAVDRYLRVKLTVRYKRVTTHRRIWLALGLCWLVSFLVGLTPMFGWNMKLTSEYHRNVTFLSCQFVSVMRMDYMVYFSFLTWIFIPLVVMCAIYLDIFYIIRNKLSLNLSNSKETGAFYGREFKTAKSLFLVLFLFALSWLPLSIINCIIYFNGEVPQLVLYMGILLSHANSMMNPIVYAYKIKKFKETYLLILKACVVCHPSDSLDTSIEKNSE
Assay: 125I-ABA binding to membranes of stably transfected CHO cells expressing the human A3 adenosine receptor (HS-21a)
Conditions: human A3
Procedure: Membranes were prepared from transiently transfected COS7 cells […] after transfection or from G418-selected stably transfected CHO or HEK 293 cells. Cells were harvested in 1 mM EDTA in phosphate buffered saline and centrifuged at 2000×g for 10 minutes. The cell pellet was washed once with phosphate buffered saline. The cell pellet was resuspended in 2 mL of 5 mM Tris, pH 7.6/5mM MgCl2. Membranes were prepared from the cells by freeze-thaw lysis in which the suspension was frozen in a dry ice/ethanol bath and thawed at 25° C. twice. The suspension was homogenized after adding an additional 2 mL of 5 mM Tris, pH 7.6/5 mM MgCl2, in a glass dounce homogenizer with 20 strokes. The membranes were pelleted at 40,000×g at 4° C. for 20 minutes. The membrane pellet was resuspended at a protein concentration of 1-2 mg/mL in binding assay buffer, 50 mM Tris, pH 7.6/10 mM MgCl2. Protein concentration was determined by the method of Bradford ((1976) Anal. Biochem. 72: 248-250). […] Saturation binding of [^125 I]-N^6 -aminiobenizyladenosine (125I-ABA) or [^125 I]-N^6 -2-(4-amino-3-iodophenyl)ethyladenosine (APNEA) was performed on membranes prepared from pSVLA3 transfected COS7 cells. Membranes (100 μg) were incubated in the presence of 0.2 U/mL adenosine deaminase with increasing concentrations of ^125 I-ABA in the range of 0.1-30 nM for 120 minutes at 25° C. in a total volume of 500 μl. The binding assay was terminated by rapid filtration and three washes with ice-cold 50 mM Tris, pH 7.6/10 mM MgCl2 on a Skatron cell harvester equipped with a receptor binding flitermat (SKATRON INSTRUMENTS, INC). Non-specific binding was determined on non-transfected cells. Bound radioactivity was measured by scintillation counting in Ready Safe Scintillation Cocktail (BECKMAN).
The 1.7 kb HS-21a cDNA (A3) was subcloned as a SalI-BamHl fragment into the expression vector pCMV5 (Mumby, S. M., Heukeroth, R. O., Gordon, J. I. and Gilman, A. G. (1990) Proc. Natl. Acad. Sci. USA 87, 728-732.) creating the vector pCMV5-A3. CHO or HEK 293 cells stably expressing the human HS-21 a cDNA were prepared by co-transfection of 15 μg pCMV5-A3 and 1 μg pWLneo (Stratagene) using the calcium phosphate method. Stable cell lines were also generated using EBV based mammalian expression vectors, pREP (INVITROGEN). Neomycin resistant colonies were selected in 1 mg/mL G418 (GIBCO). Stable colonies were screened for expression of HS-21a by ^125 I-ABA binding.
Membranes were prepared from stable CHO cell lines in 10 mM Hepes, pH 7.4 containing 0.1 mM benzamidine and 0.1 mM PMSF as described (Mahan, L. C. et al., (1991) Mol. Pharinacol. 40, 1-7). Pellets were resuspended in 5 mM Hepes, pH 7.4/5 mM MgCl2 /0.1 mM benzarnidine/0.1 mM PMSF at a protein concentration of 1-2 mg/mL and were incubated with adenosine deaminase (Boehringer Mannheim), 2 U/mL at 37° C. for 20 minutes. Saturation binding of ^125 I-ABA was carried out on 50 μg of membranes for 120 minutes at 25° C. in a total volume of 100 μl. The assay was terminated by rapid filtration and three washes with ice-cold binding buffer on a Skatron harvester equipped with a receptor binding filtermat (Skatron Instruments, Inc.). The specific activity of ^125 I-ABA, initially 2,200 Ci/mmol, was reduced to 100 Ci/mmol with nonradioactive I-ABA for saturation analysis. Nonspecific binding was measured in the presence of 1 uM I-ABA. The KD and Bmax values were calculated by the EBDA program (McPherson, G. A. (1983) Computer Programs for Biomedicine 17, 107-114). Competition binding of agonists and antagonists was determined with ^125 I-ABA (0.17-2.0 nM, 2000 Ci/mmol). […] Binding data were analyzed and competition curves were constructed by use of the nonlinear regression curve fitting program Graph PAD InPlot, Version 3.0 (Graph Pad Software, San Diego).

Structure (SMILES): CCCn1c(=O)c2[nH]c(-c3cccc(C=CC(=O)O)c3)nc2n(CCC)c1=O [BW-3911]
- A3 antagonist affinity in words: potent and selective A3 antagonist

— patent US6303619A, “Meta-substituted acidic 8-phenylxanthine antagonists of A3 human adenosine receptors” (priority 1998, dated 2001)
